Experimental data taken from paper PMC9705435, “Thiocarbazate building blocks enable the construction of azapeptides for rapid development of therapeutic candidates” (Nature Communications, 2022).
“Also recorded” adds a separate entry of the source.

Columns and labels:
rats = test: Acute blood pressure monitoring (mean arterial pressure) in anesthetized rats; format: in vivo, rat; settings: Icatibant 10 µg/kg IV-bolus 15 min before azaF^8-BK
Description: Each grey data point represents one animal. Mean values (with SEM where indicated) for animals given experimental agent were compared with vehicle.
Next, in vivo bioactivity of aza-BK analogues was evaluated in an acute blood pressure monitoring study in rats[61] based on the known blood pressure lowering effect of BK. Briefly, rats were anesthetized and changes in mean arterial blood pressure (MAP) were recorded during intravenous (IV) injection of test agents (6.4 µg/kg) (Fig. 4b).
Statistical analysis. […] Data are presented as means ± SEM unless otherwise stated. Differences between treatment groups were determined by 2-tailed Unpaired t-test; p value less than 0.05 was considered statistically significant. […] P values less than 0.05 were considered statistically significant.
5.2 Surgical procedure and physiological blood pressure measurement
Adult male Sprague Dawley rats (n = 22, weight: 300 – 350 gm; age: 8 – 10 weeks) from Charles River Labs were used under the approval of Institutional Animal Care and Use Committee at The Feinstein Institutes for Medical Research
Rats were anesthetized using isoflurane at 1-3 %. Body temperature was maintained at 37°C using a heating pad. […] All physiological signals were registered using PowerLab, BioAmp and BridgeAmp (ADInstruments, CO, USA), which were recorded on a computer using LabChart v8 software (ADInstruments, CO, USA). […]

in vitro = settings: male, C57BL/6J, mouse, blood
[1] = mouse whole blood
[2] = test system: mouse model of acetaminophen-induced liver toxicity; test: Acetaminophen (APAP)-induced liver toxicity in mice; format: in vivo; settings: vs scrambled peptide; for liver function enzymes and plasma cytokines / pro-inflammatory markers: APAP 200 mg/kg IP, 50 µg/mouse at 2 and 7 hours post-APAP, 24 h; for protection / survival in APAP toxicity model: APAP 400 mg/kg, 50 µg/mouse IP at 2 h post-APAP, then once a day for 5 days
[3] = test system: STZ-induced type 1 diabetic (T1D) mice; test: Low-dose streptozotocin (STZ)-induced type 1 diabetes in mice; settings: 500 µg/mouse/day i.p.
Description: Data are presented as means ± SD. […] Mice were simultaneously injected i.p. with saline, FSSE (500 µg/mouse/day), or azaF^1SSazaE^4 (500 µg/mouse/day). Blood glucose was measured on day 0, 7 and 14. Number of mice per group: saline n = 7; FSSE n = 8; azaF^1SSazaE^4 n = 8. Data are presented as mean values ± SEM. […] Serum samples from mice challenged with STZ were collected at day 14 and analyzed by ELISA. n = 7 mice per group. Data are presented as mean values ± SEM. […] Number of islets per group: saline n = 3, 13 islets; FSSE n = 2, 11 islets; azaF^1SSazaE^4 n = 3, 23 islets. P-value was calculated using two-sided Fisher’s exact test to compare islets without (score 0) and with (score 1-4) insulitis. Pancreas tissue was histologically analyzed from 2–3 animals per group. Representative hematoxylin and eosin (H&E) stained images of islets from each group are shown (right panel). Scale bars, 50 μm.
given free access to water and standard rodent chow and were acclimated to their environment for at least 1 week before experimentation.
4.5 STZ-induced type 1 diabetes in mice
Induction of Diabetes T1D was induced by administration of streptozotocin (STZ) (Sigma-Aldrich) (50 mg/kg dissolved in sodium citrate buffer, pH 4.5) to 6-8 weeks old C57Bl/6J mice intraperitoneally (i.p.) once each day for 5 consecutive days.
Mice were given water supplemented with 10% sucrose (Sigma-Aldrich) for six days to prevent sudden hypoglycemia during streptozotocin administration.
of FSSE, azaF1SSazaE4 or saline. Blood glucose with either FreeStyle Lite blood glucose meter (Abbot Diabetes Care, Inc.) or Bayer Contour blood glucose meter (Bayer HealthCare, LLC.) and body weight were measured once weekly. At the end of each study, mice were euthanized by CO2 asphyxiation. Blood and pancreas were collected for further analysis.
Pancreas were fixed in 10% formalin and processed for paraffin embedding (AML Laboratory and Genecopoeia). 7-μm-thick sections were stained with hematoxylin/eosin (Genecopoeia) and the degree of insulitis was eva luated microscopically. Islets were analyzed in multiple sections at 20×.

murine monocytes = test: HMGB1-stimulated TNF release in murine splenic monocytes (ELISA); format: cell-based, mouse; settings: 0.1, 1 or 10 µM peptide, HMGB1 1 µg/ml, 24 h
Excerpt: 4.2 HMGB1 protein preparation
For TNF ELISA experiments, […]

Row | Compound | effect of pretreatment on azaF^8-BK (68)-induced lowering of blood pressure (rats) | half-life (in vitro) [h] | longer half-life than native FSSE peptide [1] [fold] | liver function enzymes and plasma cytokines / pro-inflammatory markers [2] | liver function enzymes and plasma cytokines / pro-inflammatory markers ([2]; listed as azaF1SSazaE4) | protection / survival in APAP toxicity model [2] | protection / survival in APAP toxicity model ([2]; listed as azaF1SSazaE4) | diabetes-induced body weight loss [3] | severity of insulitis (insulitis scores) ([3]; 2 weeks of treatment, H&E) | level of blood glucose ([3]; day 7 and 14) | serum levels of insulin ([3]; day 14, ELISA) | development of hyperglycemia ([3]; vs diabetic (saline) group) | HMGB1-induced TNF production (murine monocytes)
1 | icatibant | partial inhibition |  |  |  |  |  |  |  |  |  |  |  | 
2 | NC(=O)N(CCC(=O)O)NC(=O)[C@H](CO)NC(=O)[C@H](CO)NC(=O)N(N)Cc1ccccc1 [Compound 51, azaF^1SSazaE^4-NH2] |  | > 2 | > 60 | improved liver function enzymes as well as plasma cytokines | reduced APAP-induced pro-inflammatory markers and serum liver enzymes | protective | improves survival | hindered diabetes-induced body weight loss | much lower than that of FSSE-treated mice; also recorded: reduced | significantly attenuated | successfully restored | delayed the development of hyperglycemia | dose-dependently reduced
